According to patent US12398411B2, “Method for producing selenoneine” (KIKKOMAN CORPORATION, priority 2018, dated 2025):

Experiments:
[1] = known to have; no test by the applicant; cited from earlier work
[2] = test system: Aspergillus sojae NBRC4239 strain; assay: Toxicity of selenium compounds: cell proliferation with alamarBlue Cell Viability Reagent; assay type: cell-based; settings: conidia of Aspergillus sojae NBRC4239; 0-2 mM final concentration; 30° C. for 30 hours
Experimental: The cytotoxicity of sodium selenite was tested as follows. To quantify cell proliferation, alamarBlue Cell Viability Reagent (Thermo Fisher Scientific) was used.
The mixture composed of 2× DPY liquid medium (2 (w/v) % polypeptone, 4 (w/v) % dextrin, 1 (w/v) % yeast extract, 1 (w/v) % KH2PO4, 0.1 (w/v) % MgSO4·7H2O; pH not adjusted), 2× alamarBlue and 2×10^4 cells/ml the conidia of Aspergillus sojae NBRC4239 strain was dispensed in the volume of 100 μl into each well of a microplate. Similarly, 100 μl of an aqueous sodium selenite solution was added to each well so that the final concentration was 0 mM, 0.125 mM, 0.25 mM, 0.5 mM, 1 mM and 2 mM. The blank without the addition of the conidia and sodium selenite solution was used as a blank.
After incubating the microplate at 30° C. for 30 hours, absorbance at 570 nm was measured. A plot of the value calculated by subtracting absorbance at 600 nm of the blank from the measurement result according to the instruction manual of alamarBlue reagent is shown in FIG. 4.

C[N+](C)(C)[C@@H](Cc1cnc([Se-])[nH]1)C(=O)O [selenoneine]
antioxidant activity relative to its thio analog, ergothioneine [1]: 1,000 times

O=[Se](O)O [sodium selenite]
degree of mycelial growth observed visually [2]: No difference | growth inhibition (cytotoxicity, absorbance at 570 nm, FIG. 4) [2]: no growth inhibition
